This note sets out measurements from US20110165277A1, “Biological Materials and Uses Thereof” (priority 2008, published 2011).

A short description of the test: Further sandalwood analogues: volatile fatty acid and methane production (Example 7, Table 14). The format is cell-based. The protocol: Further testing of sandalwood analogues was conducted following the protocols described in Examples 3 and 5.

On to `CCC(=CCC1CC=C(C)C1(C)C)CO` (centres unmarked) [Bacdanol, 2-ethyl-4-(2,2,3-trimethyl-3-cyclopenten-1-yl)-2-buten-1-ol], for which, where the note is “5 μg/ml”, the Acetate is 2037 μmol/g of feed added, the Butyrate was 438 μmol/g of feed added, the Methane is reported as 934 μmol/g of feed added and the Propionate is reported as 444 μmol/g of feed added. Also, the TVFA (5 μg/ml) is 2919 μmol/g of feed added. Also, for the setting “50 μg/ml”, the Acetate was 2049 μmol/g of feed added, the Butyrate is 458 μmol/g of feed added, the Methane is 1047 μmol/g of feed added and the Propionate is reported as 434 μmol/g of feed added. Further, where the note is “50 μg/ml”, the TVFA was 2942 μmol/g of feed added. Moreover, under “100 μg/ml”, the Acetate was 2419 μmol/g of feed added, the Butyrate is recorded as 514 μmol/g of feed added, the Methane was 995 μmol/g of feed added and the Propionate was 515 μmol/g of feed added. The TVFA (100 μg/ml) is given as 3448 μmol/g of feed added. Where the note is “500 μg/ml”, the Acetate is 2331 μmol/g of feed added, the Butyrate is 309 μmol/g of feed added, the Methane is reported as 942 μmol/g of feed added and the Propionate is listed as 864 μmol/g of feed added. Further, the TVFA (500 μg/ml) is on record as 3503 μmol/g of feed added.

In the case of `CC1=CCC(C=CC(C)C(C)O)C1(C)C` (centres unmarked) [Ebanol, 3-Methyl-5-(2,2,3-trimethyl-3-cyclopenten-1-yl)-4-penten-2-ol], under “5 μg/ml”, the Acetate is reported as 2136 μmol/g of feed added, the Butyrate is recorded as 488 μmol/g of feed added, the Methane was 952 μmol/g of feed added and the Propionate is 427 μmol/g of feed added. Under “5 μg/ml”, the TVFA is 3051 μmol/g of feed added. Besides, under “50 μg/ml”, the Acetate was 2129 μmol/g of feed added, the Butyrate is 474 μmol/g of feed added, the Methane was 934 μmol/g of feed added and the Propionate was 436 μmol/g of feed added. The TVFA (50 μg/ml) is 3039 μmol/g of feed added. Further, for the setting “100 μg/ml”, the Acetate is on record as 2430 μmol/g of feed added, the Butyrate is 458 μmol/g of feed added, the Methane is recorded as 833 μmol/g of feed added and the Propionate is 533 μmol/g of feed added. The TVFA (100 μg/ml) is 3421 μmol/g of feed added. Under “500 μg/ml”, the Acetate is given as 2333 μmol/g of feed added, the Butyrate is given as 332 μmol/g of feed added, the Methane is given as 683 μmol/g of feed added and the Propionate is listed as 939 μmol/g of feed added. The TVFA (500 μg/ml) is 3604 μmol/g of feed added.

As to `CC1=CCC(CCC(C)C(C)O)C1(C)C` (centres unmarked) [Sandalore, 5-(2,2,3-Trimethyl-3-cyclopentenhyl)-3-methylpentan-2-ol], under “5 μg/ml”, the Acetate was 2118 μmol/g of feed added, the Butyrate is given as 487 μmol/g of feed added, the Methane is 951 μmol/g of feed added and the Propionate was 431 μmol/g of feed added. The TVFA (5 μg/ml) is recorded as 3036 μmol/g of feed added. For the setting “50 μg/ml”, the Acetate was 1972 μmol/g of feed added, the Butyrate is recorded as 453 μmol/g of feed added, the Methane is reported as 1086 μmol/g of feed added and the Propionate was 409 μmol/g of feed added. For the same compound, the TVFA (50 μg/ml) is on record as 2834 μmol/g of feed added. Also, where the note is “100 μg/ml”, the Acetate is 2119 μmol/g of feed added, the Butyrate is listed as 432 μmol/g of feed added, the Methane is on record as 1174 μmol/g of feed added and the Propionate is given as 471 μmol/g of feed added. The TVFA (100 μg/ml) is on record as 3023 μmol/g of feed added. For the setting “500 μg/ml”, the Acetate was 2249 μmol/g of feed added, the Butyrate is 305 μmol/g of feed added, the Methane is reported as 902 μmol/g of feed added and the Propionate is 897 μmol/g of feed added. For the same compound, the TVFA (500 μg/ml) was 3451 μmol/g of feed added.

For the compound `CC1C2CC(CC2C2CCC(O)CC2)C1(C)C` (centres unmarked) [Sandela, 4-(5,5,6-Trimethylbicyclo[2.2.1]hept-2-yl)cyclohexan-1-ol], where the note is “5 μg/ml”, the Acetate is listed as 2223 μmol/g of feed added, the Butyrate is reported as 482 μmol/g of feed added, the Methane is given as 996 μmol/g of feed added and the Propionate is on record as 465 μmol/g of feed added. The TVFA (5 μg/ml) was 3169 μmol/g of feed added. Under “50 μg/ml”, the Acetate is 2235 μmol/g of feed added, the Butyrate was 513 μmol/g of feed added, the Methane is 1052 μmol/g of feed added and the Propionate is on record as 450 μmol/g of feed added. Further, under “50 μg/ml”, the TVFA is 3198 μmol/g of feed added. Also, for the setting “100 μg/ml”, the Acetate is on record as 2297 μmol/g of feed added, the Butyrate is recorded as 515 μmol/g of feed added, the Methane is recorded as 1078 μmol/g of feed added and the Propionate was 477 μmol/g of feed added. In addition, the TVFA (100 μg/ml) is given as 3289 μmol/g of feed added. In addition, for the setting “500 μg/ml”, the Acetate is listed as 2270 μmol/g of feed added, the Butyrate was 317 μmol/g of feed added, the Methane was 928 μmol/g of feed added and the Propionate is on record as 680 μmol/g of feed added. In addition, where the note is “500 μg/ml”, the TVFA is on record as 3267 μmol/g of feed added.
